One data set concerns H1975 cells. The data set can be described thus: Cellular growth inhibition (sulforhodamine B). In kind it is cell-based, Human. The note with it: for IC50: Homo sapiens, NCI-H1975.
The test system of another data set is SKOV3 cells. The data set can be described thus: Cellular growth inhibition (sulforhodamine B). In kind it is cell-based, Human. The note with it: Table 9; for IC50: Homo sapiens, SK-OV-3.
For a further data set, the system named is H1975 xenografts. The data set can be described thus: In vivo efficacy in H1975 xenografts. Also noted: species or system mice. The note with it: H1975 xenografts, q3dx4 at respective MTD, IP. Here is the method:
Specific pathogen-free homozygous female NIH-III nude mice (Charles River Laboratories, Wilmington, Mass.) were inoculated subcutaneously with a single cell suspension of H1975 cells (5×10^6 cells/100 μL; right flank). When H1975 tumour xenografts were established (typically 8-12 days) mice were randomized to treatment groups. All compounds were prepared in lactate buffer (pH4). Mice were dosed by intraperitoneal injection (0.01-0.03 ml/g) using the stated schedules and dose levels. For growth delay experiments mice were randomized to treatment and tumor volume [π(length×width^2)/6] and body weight were measured daily following treatment. […] Differences in RTV^4 were tested for statistical difference by Mann Whitney U test using SigmaStat v3.5.

Data set [1] can be described thus: Chemical stability by HPLC. To be noted: HPLC after 24 h at 37° C.
The subject of the next data set is A431 cells. In words: Cellular growth inhibition (sulforhodamine B). To be noted: for IC50: Homo sapiens.
Another data set deals with erbB1 (Homo sapiens, UniProt P00533). The data set can be described thus: Inhibition of erbB1 autophosphorylation in EGF-stimulated intact A431 cells (Western blot).
For a further data set, the system named is HT29 cells. The data set can be described thus: Cellular growth inhibition (sulforhodamine B). To be noted: Table 7; for IC50: Homo sapiens, HT-29. In kind it is cell-based, Human.
The nature of data set [2]: Steady state radiolytic reduction by the CO2.− radical with HPLC-MS. In kind it is physicochemical. To be noted: for Detection of MNA (methyl nitroaromatic) / release of effector following 1-electron reduction: HPLC-MS; for % Loss of prodrug: HPLC-MS at 0.95 reducing equivalents; for release of effector following 1-electron reduction: steady state radiolysis.
The nature of data set [3]: Pulse radiolysis (E(1) and fragmentation rate). In kind it is physicochemical. The note with it: for E (1)/V (one-electron reduction potential): determined against methylviologen. Here is the method:
Pulse radiolysis was used to monitor the 1-electron reduction and stability of the compounds in real time. A linear accelerator delivering short pulses of high energy electrons (2-3 Gy in 200 ns of 4 MeV) equipped with a fast spectophotometric detection system was used. (Anderson et al, J. Phys. Chem. A, 101, 9704-9709, 1997). […] The rate of fragmentation was determined by analysing kinetic transients at wavelengths corresponding to the formation of the benzyl-type radical of the trigger moiety. (Bays et al, J. Am. Chem. Soc., 105, 320-324, 1983; Anderson et al, J. Phys. Chem. A, 101, 9704-9709, 1997).
The pulse radiolysis method, for example, measures the equilibrium constant between the radical anions of the prodrugs, formed upon their 1-electron reduction, and reference standards such as viologen and quinone compounds, from which data the E(1) values of the compounds can be calculated. (Meisel and Czapski. J. Phys. Chem., 1975, 79, 1503-1509.) The E(1) values of prodrugs 17-22, 140-145 were measured by the pulse radiolysis method and determined to range between −0.493V and −0.388V (Table 4).
The rate constants for fragmentation, kfrag, of the 1-electron reduced prodrugs can be measured using pulse radiolysis to observe the time-resolved formation of the absorption spectrum of the benzyl-type radical produced upon fragmentation of the radical anion. (Anderson et al, J. Phys. Chem. A, 1997, 101, 9704-9709.) The kfrag values of prodrugs 19, 20, 140, 141 and 143-145 were measured by pulse radiolysis and are presented in Table 4.
Pulse radiolysis was used to monitor the one-electron reduction and stability of prodrug 42 in real time. A linear accelerator delivering short pulses of high energy electrons (2-3 Gy in 200 ns of 4 MeV) equipped with a fast spectophotometric detection system was used. […] The rate of fragmentation was determined by analysing kinetic transients at wavelengths corresponding to the formation of the benzyl-type radical of the trigger moiety. (Bays et al, J. Am. Chem. Soc., 105, 320-324, 1983; Anderson et al, J. Phys. Chem. A, 101, 9704-9709, 1997.)

A further data set addresses erbB2 (Homo sapiens, UniProt P04626). In words: Isolated enzyme inhibition (Invitrogen Z′-LYTE kinase assay). In kind it is biochemical. To be noted: 10 μM ATP, duplicate. Here is the method:
(§1) The compounds of Table 1 were tested for their ability to inhibit erbB1, erbB1^T790M, erbB2 and erbB4 in an isolated enzyme assay. This assay utilises synthetic FRET-capable peptide substrates. Phosphorylation of these substrates protects them from cleavage by a development reagent, leaving their FRET-capabilities intact. […] As a further consideration, for compounds capable of irreversible inhibition of an enzyme, the IC50 reflects both reversible and irreversible binding to the enzyme.

A further data set addresses erbB4 (Homo sapiens, UniProt Q15303). The data set is described as above. In kind it is biochemical. The note with it: 10 μM ATP, duplicate. Here is the method: as §1
The next data set concerns SKBR3 cells. The data set can be described thus: Cellular growth inhibition (sulforhodamine B). In kind it is cell-based, Human. To be noted: Table 3; for IC50: Homo sapiens, SK-BR-3.
In the next data set the test system is SW620 cells. In words: Cellular growth inhibition (sulforhodamine B). In kind it is cell-based, Human. To be noted: Table 3; for IC50: Homo sapiens, SW-620.
Where [4] appears, read: Table 9, 24 hour exposure oxic, read-out: Cellular Growth Inhibition IC50 H1975 Oxic.
Where [5] appears, read: Table 9, first 4 hours anoxic, read-out: Cellular Growth Inhibition IC50 H1975 Anoxic.
The mark [6] stands for this setting: 24 hour exposure oxic, read-out: Cellular Growth Inhibition IC50 SKOV3 Oxic.
The mark [7] stands for this setting: first 4 hours anoxic, read-out: Cellular Growth Inhibition IC50 SKOV3 Anoxic.
The mark [8] stands for this setting: A-431, 4 h, read-out: Cellular Growth Inhibition IC50 A431 Anoxic.
Setting [9] is: A-431, 24 h, read-out: Cellular Growth Inhibition IC50 A431 Oxic.
[10] abbreviates: Table 7, 24 hour exposure oxic, read-out: Cellular Growth Inhibition IC50 H1975 Oxic.
The mark [11] stands for this setting: Table 7, initial 4 hours anoxic, read-out: Cellular Growth Inhibition IC50 H1975 Anoxic.
Setting [12] is: 24 hour exposure oxic, read-out: Cellular Growth Inhibition IC50 HT29 Oxic.
[13] abbreviates: initial 4 hours anoxic, read-out: Cellular Growth Inhibition IC50 HT29 Anoxic.

Like-named read-outs stand apart in the source and are kept apart here.

erbB1, sequence (P00533 25-1210): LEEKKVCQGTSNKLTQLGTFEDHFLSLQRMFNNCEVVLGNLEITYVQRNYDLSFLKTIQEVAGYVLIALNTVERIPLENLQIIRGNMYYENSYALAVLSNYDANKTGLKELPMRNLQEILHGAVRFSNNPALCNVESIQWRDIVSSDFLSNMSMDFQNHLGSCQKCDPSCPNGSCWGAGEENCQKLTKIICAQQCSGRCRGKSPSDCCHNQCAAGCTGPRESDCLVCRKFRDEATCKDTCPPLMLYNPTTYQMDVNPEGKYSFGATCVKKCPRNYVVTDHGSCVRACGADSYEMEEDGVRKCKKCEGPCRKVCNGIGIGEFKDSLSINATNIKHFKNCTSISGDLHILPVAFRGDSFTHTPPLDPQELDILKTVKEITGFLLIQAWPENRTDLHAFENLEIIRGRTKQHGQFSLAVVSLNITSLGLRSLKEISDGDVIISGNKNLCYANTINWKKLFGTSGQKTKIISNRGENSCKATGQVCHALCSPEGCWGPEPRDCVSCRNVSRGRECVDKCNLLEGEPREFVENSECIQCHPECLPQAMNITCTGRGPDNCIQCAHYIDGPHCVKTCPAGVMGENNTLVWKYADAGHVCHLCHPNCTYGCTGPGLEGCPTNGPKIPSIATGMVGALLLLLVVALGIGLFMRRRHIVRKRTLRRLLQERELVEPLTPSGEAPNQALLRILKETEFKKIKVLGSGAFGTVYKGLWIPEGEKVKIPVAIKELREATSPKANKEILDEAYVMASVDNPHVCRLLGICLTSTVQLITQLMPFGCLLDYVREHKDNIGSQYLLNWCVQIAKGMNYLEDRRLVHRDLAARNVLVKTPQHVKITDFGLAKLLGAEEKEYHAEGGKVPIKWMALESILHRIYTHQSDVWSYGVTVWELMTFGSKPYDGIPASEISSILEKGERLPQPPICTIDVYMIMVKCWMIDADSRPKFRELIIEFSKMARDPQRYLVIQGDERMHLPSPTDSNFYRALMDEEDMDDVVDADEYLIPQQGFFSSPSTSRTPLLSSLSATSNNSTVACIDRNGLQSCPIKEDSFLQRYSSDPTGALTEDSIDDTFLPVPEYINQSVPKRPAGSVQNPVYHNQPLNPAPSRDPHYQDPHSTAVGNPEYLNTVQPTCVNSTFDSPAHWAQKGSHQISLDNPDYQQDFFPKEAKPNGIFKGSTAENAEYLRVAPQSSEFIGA
erbB4, sequence (Q15303 26-1308): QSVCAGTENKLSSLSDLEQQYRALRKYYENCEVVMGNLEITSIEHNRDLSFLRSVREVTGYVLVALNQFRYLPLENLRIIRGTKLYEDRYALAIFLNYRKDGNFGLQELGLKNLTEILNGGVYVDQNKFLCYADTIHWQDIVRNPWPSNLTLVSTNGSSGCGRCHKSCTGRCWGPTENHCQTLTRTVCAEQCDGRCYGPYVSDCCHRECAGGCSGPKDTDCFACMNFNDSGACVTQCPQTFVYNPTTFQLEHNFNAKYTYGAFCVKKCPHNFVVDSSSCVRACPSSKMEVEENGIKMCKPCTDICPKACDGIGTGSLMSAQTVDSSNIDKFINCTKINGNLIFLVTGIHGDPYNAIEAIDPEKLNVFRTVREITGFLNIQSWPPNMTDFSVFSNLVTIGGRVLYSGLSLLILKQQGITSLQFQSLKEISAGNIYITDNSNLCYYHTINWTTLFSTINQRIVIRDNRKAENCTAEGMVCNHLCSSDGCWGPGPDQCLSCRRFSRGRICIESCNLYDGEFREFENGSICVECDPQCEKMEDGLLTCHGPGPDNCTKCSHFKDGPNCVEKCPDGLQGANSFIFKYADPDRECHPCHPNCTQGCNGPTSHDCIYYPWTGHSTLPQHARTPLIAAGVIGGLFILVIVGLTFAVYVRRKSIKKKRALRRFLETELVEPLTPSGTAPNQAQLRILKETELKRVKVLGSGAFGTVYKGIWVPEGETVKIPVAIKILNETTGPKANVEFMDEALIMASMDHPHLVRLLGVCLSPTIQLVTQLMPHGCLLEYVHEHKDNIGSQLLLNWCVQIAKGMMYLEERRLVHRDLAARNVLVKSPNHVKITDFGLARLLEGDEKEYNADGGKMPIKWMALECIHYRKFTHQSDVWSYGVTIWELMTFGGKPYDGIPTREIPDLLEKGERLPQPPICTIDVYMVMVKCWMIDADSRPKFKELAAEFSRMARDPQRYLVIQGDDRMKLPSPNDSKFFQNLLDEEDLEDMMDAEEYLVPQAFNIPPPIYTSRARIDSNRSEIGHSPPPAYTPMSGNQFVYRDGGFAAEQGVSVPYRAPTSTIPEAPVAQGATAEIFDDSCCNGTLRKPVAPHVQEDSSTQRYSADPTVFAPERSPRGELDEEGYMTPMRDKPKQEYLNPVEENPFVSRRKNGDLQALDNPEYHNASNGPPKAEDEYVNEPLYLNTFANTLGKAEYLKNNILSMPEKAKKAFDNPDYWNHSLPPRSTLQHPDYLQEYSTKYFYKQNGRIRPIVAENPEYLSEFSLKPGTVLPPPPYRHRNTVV
erbB2, sequence (P04626 23-1255): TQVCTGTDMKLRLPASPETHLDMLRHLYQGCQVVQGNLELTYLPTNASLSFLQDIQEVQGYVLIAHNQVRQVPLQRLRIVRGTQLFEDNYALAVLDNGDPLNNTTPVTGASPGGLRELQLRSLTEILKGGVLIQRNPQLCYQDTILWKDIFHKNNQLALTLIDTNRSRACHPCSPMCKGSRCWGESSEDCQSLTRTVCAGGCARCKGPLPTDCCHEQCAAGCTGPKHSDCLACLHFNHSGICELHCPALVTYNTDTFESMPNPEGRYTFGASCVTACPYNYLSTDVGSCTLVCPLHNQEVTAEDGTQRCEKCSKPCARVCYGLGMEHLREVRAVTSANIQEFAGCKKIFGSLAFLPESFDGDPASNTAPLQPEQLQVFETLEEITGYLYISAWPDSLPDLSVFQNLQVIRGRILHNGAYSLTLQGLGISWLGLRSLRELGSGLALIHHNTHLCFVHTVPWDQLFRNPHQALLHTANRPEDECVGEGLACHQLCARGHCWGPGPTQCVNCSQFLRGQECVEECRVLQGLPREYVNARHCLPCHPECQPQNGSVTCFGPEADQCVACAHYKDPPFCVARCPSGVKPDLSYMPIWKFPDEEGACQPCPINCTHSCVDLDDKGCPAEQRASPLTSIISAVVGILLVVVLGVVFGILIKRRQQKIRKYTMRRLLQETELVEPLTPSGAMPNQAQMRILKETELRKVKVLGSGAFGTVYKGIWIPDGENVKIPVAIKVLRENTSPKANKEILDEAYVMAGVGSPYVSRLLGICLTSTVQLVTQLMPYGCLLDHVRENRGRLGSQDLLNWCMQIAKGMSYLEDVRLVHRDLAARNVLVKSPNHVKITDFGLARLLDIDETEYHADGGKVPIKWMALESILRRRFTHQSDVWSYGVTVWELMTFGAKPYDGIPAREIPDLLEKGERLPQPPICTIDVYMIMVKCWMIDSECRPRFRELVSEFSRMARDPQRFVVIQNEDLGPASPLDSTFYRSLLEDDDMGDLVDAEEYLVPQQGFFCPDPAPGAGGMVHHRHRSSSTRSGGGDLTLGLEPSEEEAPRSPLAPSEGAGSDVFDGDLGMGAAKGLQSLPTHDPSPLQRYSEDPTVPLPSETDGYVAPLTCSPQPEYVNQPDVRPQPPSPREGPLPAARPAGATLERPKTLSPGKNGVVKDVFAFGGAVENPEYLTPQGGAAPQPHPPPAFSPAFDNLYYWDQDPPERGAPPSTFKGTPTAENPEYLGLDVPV
Protocol for HT29 cells: (§2) Human A431, BT474, SKBR3, SKOV3, SW620, H1975 and HT29 carcinoma cells in log phase exponential growth in alpha minimal essential media (αMEM) containing 5% fetal bovine serum (FBS), were harvested by trypsinisation (1× trypsin/EDTA, Gibco Brl), counted, and seeded into 96 well plates (Nunc) at cell densities ranging from 800-1500 cells/well. Half of the cell samples were seeded into plates that were pre-equilibrated and held in an anoxic environment (90% N2, 5% H2, 5% CO2, 37° Q Anaerobic chamber, Coy Laboratory Products). […] At the end of this period the anoxic plates were recovered from the anaerobic camber and held under normoxia in a standard CO2 incubator (37° C.) for 20 hours. All plates were washed free of compound and cells were allowed to proliferate for a further 4 days in αMEM containing 5% FBS+antibiotics. Cells were fixed in trichloroacteic acid (30 min), washed and stained with sulforhodamine B (SRB, 60 min) prior to washing in acidified water. SRB was solubilised and absorption read at 450 nm to calculate cell densities. Inhibition of proliferation was calculated relative to untreated control wells.
Protocol for SKBR3 cells: as §2

With `Cn1cnc([N+](=O)[O-])c1C[N+](C)(C)C/C=C/C(=O)Nc1cc2c(Nc3ccc(F)c(C(F)(F)F)c3)ncnc2cn1` [Compound 50, (2E)-4-({4-[4-fluoro-3-(trifluoromethyl)anilino]pyrido[3,4-d]pyrimidin-6-yl}amino)-N,N-dimethyl-N-[(1-methyl-4-nitro-1H-imidazol-5-yl)methyl]-4-oxo-2-buten-1-ammonium bromide], the IC50 worked out at 120 µM with H1975 cells (setting [4]); 3.78 µM with H1975 cells (setting [5]); 125 µM in the data set with SKOV3 cells (setting [6]); 4.78 µM with SKOV3 cells (setting [7]); 0.25 µM in the data set on A431 cells (setting [8]); 15.3 µM with A431 cells (setting [9]). On erbB1, this compound registered a half-maximal inhibitory concentration (IC50) of 0.969 µM. In the data set with H1975 cells (Table 9), the “H1975 Deact.” value is on record as 70 fold. In the data set on H1975 cells (Table 9), the “H1975 HCR” value is on record as 43.5 fold. Further, the “SKOV3 Deact.” value in the data set on SKOV3 cells is on record as 126 fold. Besides, the “SKOV3 HCR” value in the data set with SKOV3 cells was 28.7 fold. In the data set on H1975 xenografts, the “tumour growth inhibition (TGI)” value was found to be 114%. Moreover, the solubility was 72 µM in the data set “physchem” (aqueous buffer) and above 1300 µM in “physchem” (water). The “Stability PBS (percentage parent remaining)” value in [1] is recorded as 88%. Besides, the “Stability Water (percentage parent remaining)” value in data set [1] was 99%. For the same compound, the “Stability α-MEM + FCS (5%) (percentage parent remaining)” value in [1] is 64%. In the data set on A431 cells (Table 9), the “A431 Deact.” value was 64 fold. In addition, the “A431 HCR” value in the data set with A431 cells (Table 9) was found to be 65.8 fold. The “Deact. erbB1 (fold reduction in cellular inhibition relative to the parent kinase inhibitor)” value at erbB1 (Table 8, A431 cells) was 121 fold.
`C#Cc1cccc(Nc2ncnc3cnc(NC(=O)/C=C/CN(C)C)cc23)c1` [Compound 171, (2E)-4-(dimethylamino)-N-[4-(3-ethynylanilino)pyrido[3,4-d]pyrimidin-6-yl]-2-butenamide] came in with a melting point of 163 to 166 °C. Besides, the half-maximal inhibitory concentration (IC50) with H1975 cells (setting [4]) amounted to 1.15 µM. Besides, the IC50 in the data set on H1975 cells (setting [5]) is 1.12 µM. Also, the “H1975 HCR” value in the data set on H1975 cells (Table 9) amounted to 1.1 fold. The IC50 in the data set with SKOV3 cells (setting [6]) amounted to 0.55 µM. The IC50 in the data set with SKOV3 cells (setting [7]) came out at 0.74 µM. Further, the “SKOV3 HCR” value in the data set with SKOV3 cells came out at 0.8 fold. Moreover, in the data set with A431 cells (setting [8]), the IC50 is 0.017 µM. Moreover, the IC50 in the data set with A431 cells (setting [9]) worked out at 0.027 µM. In addition, the “A431 HCR” value in the data set with A431 cells (Table 9) came to 1.7 fold. This compound also returned an IC50 at erbB1 of 0.008 µM.
As for `Cn1cnc([N+](=O)[O-])c1C[n+]1ccc(Nc2ncc3cc(-c4c(Cl)cccc4Cl)c(=O)n(C)c3n2)cc1.[Br-]` [Compound 142, 4-{[6-(2,6-dichlorophenyl)-8-methyl-7-oxo-7,8-dihydropyrido[2,3-d]pyrimidin-2-yl]amino}-1-[(1-methyl-4-nitro-1H-imidazol-5-yl)methyl]pyridinium bromide], the melting point was 252 °C (dec.). The IC50 in the data set with H1975 cells (setting [10]) came to 216 µM. Besides, the IC50 in the data set on H1975 cells (setting [11]) is above 100 µM. In addition, in the data set on H1975 cells (Table 7), the “H1975 HCR” value was below 3 fold. Also, the IC50 in the data set with HT29 cells (setting [12]) was found to be 154 µM. Also, the IC50 in the data set with HT29 cells (setting [13]) was 119 µM. The “HT29 HCR” value in the data set on HT29 cells worked out at 1 fold. Besides, in data set [2], the “Detection of MNA (methyl nitroaromatic)” value is listed as “No”, the “% Loss of prodrug” value was found to be 8% and the “release of effector following 1-electron reduction” value is given as “did not release their respective effector compounds”. Moreover, the “E (1)/V (one-electron reduction potential)” value in [3] is recorded as −0.471 V. Besides, the IC50 with A431 cells (setting [8]) was above 100 µM. In the data set on A431 cells (setting [9]), the IC50 amounted to 555 µM. Also, the “A431 HCR” value with A431 cells (Table 7) was below 6 fold.
In turn, `Cn1cnc([N+](=O)[O-])c1C[N+]1(CCOc2ccc(Nc3ncc4cc(-c5c(Cl)cccc5Cl)c(=O)n(C)c4n3)cc2)CCCCC1.[Br-]` [Compound 143, 1-[2-(4-{[6-(2,6-dichlorophenyl)-8-methyl-7-oxo-7,8-dihydropyrido[2,3-d]pyrimidin-2-yl]amino}phenoxy)ethyl]-1-[(1-methyl-4-nitro-1H-imidazol-5-yl)methyl]piperidinium bromide] showed a melting point of 176 to 178 °C. Moreover, the IC50 with H1975 cells (setting [10]) is 17.9 µM. For the same compound, in the data set with H1975 cells (setting [11]), the IC50 stood at 2 µM. Besides, in the data set on H1975 cells (Table 7), the “H1975 HCR” value is on record as 9 fold. For the same compound, the IC50 with HT29 cells (setting [12]) came out at 7.8 µM. Also, the IC50 with HT29 cells (setting [13]) came out at 1.5 µM. In addition, the “HT29 HCR” value with HT29 cells came to 5 fold. In data set [2], the “Detection of MNA (methyl nitroaromatic)” value is given as “Yes”, the “% Loss of prodrug” value is 69% and the “release of effector following 1-electron reduction” value was “released their respective effector compounds”. Further, the “kfrag. (fragmentation rate constant upon 1-electron reduction)” value in [3] (benzyl-type radical formation) amounted to 170 ± 20 s⁻¹. In addition, the “E (1)/V (one-electron reduction potential)” value in [3] is −0.465 V. Moreover, in the data set with A431 cells (setting [8]), the IC50 was determined as 1 µM. For the same compound, the IC50 with A431 cells (setting [9]) came out at 42.8 µM. In addition, the “A431 HCR” value with A431 cells (Table 7) is 43 fold.
In turn, `CN(C)CCCC(=O)Nc1ccc2ncnc(Nc3cccc(Br)c3)c2c1` [Compound 16, N-[4-(3-bromoanilino)-6-quinazolinyl]-4-(dimethylamino)butanamide] came in with a melting point of 180 to 182 °C. Inhibition on erbB2 was half-maximal at 0.074 µM (IC50). In addition, the midpoint of inhibition at erbB4, the IC50, lay at 0.113 µM. Besides, in the data set with SKBR3 cells (24 hour exposure entirely oxic, read-out: Cellular Growth Inhibition IC50 SKBR3 Oxic), the IC50 came to 3.19 µM. The IC50 with SKBR3 cells (first 4 hours anoxic, read-out: Cellular Growth Inhibition IC50 SKBR3 Anoxic) is 5.51 µM. For the same compound, the “SKBR3 HCR” value with SKBR3 cells is reported as 0.6 fold. For the same compound, in the data set with SW620 cells (24 hour exposure entirely oxic, read-out: Cellular Growth Inhibition IC50 SW620 Oxic), the IC50 came to 18.6 µM. Besides, the IC50 in the data set on SW620 cells (first 4 hours anoxic, read-out: Cellular Growth Inhibition IC50 SW620 Anoxic) stood at 19.6 µM. For the same compound, in the data set on SW620 cells, the “SW620 HCR” value was found to be 0.9 fold. Further, the IC50 with A431 cells (setting [9]) was 1.26 µM. The IC50 in the data set with A431 cells (A-431, read-out: Cellular Growth Inhibition IC50 A431 Anoxic) was determined as 1.3 µM.

These data come from patent US9073916B2, “Prodrug forms of kinase inhibitors and their use in therapy” (AUCKLAND UNISERVICES LIMITED, priority 2009, dated 2015).
